Columns and labels:
[1] = tested on: Stage III-V gametocytes (blood stage P. falciparum parasites); assay: In vitro drug activity on gametocytes (AlamarBlue viability assay); assay type: cell-based, Plasmodium falciparum; details: for EC50: read-out: Gametocyte EC50
Method: Cell culture. Asexual parasites of P. falciparum strain 3D7 were cultured as described previously [Trager W, et al., Journal of Parasitology 2005, 91: 484-486], Stage III-V gametocytes were selected and enriched with 3-day treatment with 50 mM N-acetylglucosamine (NAG) and the following Percoll density gradient centrifugation after gametocyte production [Tanaka T Q, et al., Molecular and Biochemical Parasitology, 2011, 111: 160-163], Gametocytes of HB3 and Dd2 strains were produced and then set up for assay in a similar process. HepG2 cells (ATCC, cat. no. 77400) were cultured in 175-cm^2 tissue culture flasks with 30 ml growth medium at 37° C. in a 5% CO2 humidified atmosphere. Growth medium was made with Dulbecco's Modified Eagle Medium with 10% fetal bovine serum (FBS). Growth medium was replaced every other day and cells were passed at 75% confluence.
Compound screening experiments were performed as previously described [Tanaka T Q et al., Molecular and Biochemical Parasitology, 2013, 3188: 20-25], Briefly, 2.5 μl/well incomplete medium was dispensed into each well of 1,536-well plates using the Multidrop Combi followed by 23 nl compound transferring using the NX-TR Pintool (WAKO Scientific Solutions, San Diego, Calif.). 2.5 μl/well of gametocytes was dispensed with a seeding density of 20,000 cells/well using the Multidrop Combi. The assay plates were incubated for 72 h at 37° C. with 5% CO2. After addition of 5 μl/well of 2× AlamarBlue dye (Life Technologies, cat. no. DALI 100), the plates were incubated for 24 h at 37° C. with 5% CO2 and were read in a fluorescence detection mode (Ex=525 nm, Em=598 nm) on a ViewLux plate reader (PerkinElmer).
Stage III-V gametocytes (blood stage P. falciparum parasites) were enriched with treatment with 50 mM N-acetylglucosamine (NAG) and Percoll density gradient centrifugation as described previously^1. Briefly, 2.5 μl/well incomplete medium was dispensed into each well of 1,536-well plates using the Multidrop Combi followed by 23 nl compound transfer using the NX-TR Pintool (WAKO Scientific Solutions, San Diego, Calif.). Then, 2.5 μl/well of gametocytes was dispensed with a seeding density of 20,000 cells/well using the Multidrop Combi. The assay plates were incubated for 72 h at 37° C. with 5% CO2. After addition of 5 μl/well of 2× AlamarBlue dye (Life Technologies, cat. no. DALI 100), the plates were incubated for 24 h at 37° C. with 5% CO2 and then were read in a fluorescence detection mode (Ex=525 nm, Em=598 nm) on a ViewLux plate reader (PerkinElmer).

[2] = tested on: Asexual parasites of P. falciparum strain 3D7; assay: In vitro drug activity on asexual parasites (SYBR Green assay); assay type: cell-based, Plasmodium falciparum
Method in brief: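 3D7 parasites at 0.5% parasitemia and 2% hematocrit were exposed to drugs (DMSO ≤0.5%) for 72 h under standard culture conditions, in duplicate. After freeze-thaw lysis, SYBR Green I lysis buffer was added for 30 min at room temperature, and fluorescence was read at 490/520 nm.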

[3] = molecular target: mTOR (Homo sapiens, UniProt P42345); assay: mTOR activity (no method described); assay type: biochemical
[4] = Microsomal stability (rat); assay type: in vitro ADME; details: rat microsomes
[5] = Solubility at pH 7.4; assay type: physicochemical

C[C@@H]1CN(C(=O)c2ccc(-n3c(=O)ccc4cnc5ccc(-c6ccc(Cl)cc6)cc5c43)cc2)C[C@H](C)O1 [Compound 101]
EC50 [1]: 305 nM
EC50 [2]: 107 nM
mTOR [3]: 1.78 µM
Microsomal Stability (rat) T1/2 [4]: 4.5 min
Sol @ pH 7.4 [5]: <1.0 ug/mL

Cc1cc(C(=O)N2CCOCC2)ccc1-n1c(=O)ccc2cnc3ccc(-c4ccc(Cl)cc4)cc3c21 [Compound 110]
EC50 [1]: 139 nM
EC50 [2]: 40.8 nM
mTOR [3]: 9.459 µM
Microsomal Stability (rat) T1/2 [4]: 2.2 min
Sol @ pH 7.4 [5]: 1.1 ug/mL

NCc1ccc(-c2ccc3ncc4ccc(=O)n(-c5ccc(C(=O)N6CCOCC6)cc5)c4c3c2)cc1 [Compound 111]
EC50 [1]: 285 nM
EC50 [2]: 241 nM
mTOR [3]: 1.135 µM
Microsomal Stability (rat) T1/2 [4]: >30.0 min
Sol @ pH 7.4 [5]: 19.8 ug/mL

CNC(=O)c1ccc(-n2c(=O)ccc3cnc4ccc(-c5ccc(Cl)cc5)cc4c32)c(C)c1 [Compound 112]
EC50 [1]: 179 nM
EC50 [2]: 76.8 nM
mTOR [3]: 3.581 µM
Microsomal Stability (rat) T1/2 [4]: 5 min
Sol @ pH 7.4 [5]: 5 ug/mL

Nc1cc(-c2ccc3ncc4ccc(=O)n(-c5ccc(C(=O)N6CCOCC6)cc5)c4c3c2)ccc1Cl [Compound 113]
EC50 [1]: 75.9 nM
EC50 [2]: 29.9 nM
mTOR [3]: 1.37 µM
Microsomal Stability (rat) T1/2 [4]: 13.6 min
Sol @ pH 7.4 [5]: <1.0 ug/mL

O=C(c1ccc(-n2c(=O)ccc3cnc4ccc(-c5ccc(Cl)c(O)c5)cc4c32)cc1)N1CCOCC1 [Compound 114]
EC50 [1]: 13.6 nM
EC50 [2]: 6.95 nM
mTOR [3]: 0.4313 µM
Microsomal Stability (rat) T1/2 [4]: 23.3 min
Sol @ pH 7.4 [5]: <1.0 ug/mL

O=C(O)c1cc(-c2ccc3ncc4ccc(=O)n(-c5ccc(C(=O)N6CCOCC6)cc5)c4c3c2)ccc1Cl [Compound 117]
Gametocyte EC50 [1]: Inactive
EC50 [2]: 14400 nM
mTOR [3]: 4.734 µM
Microsomal Stability (rat) T1/2 [4]: >30.0 min
Sol @ pH 7.4 [5]: >80.0 ug/mL

Nc1ccc(-c2ccc3ncc4ccc(=O)n(-c5ccc(C(=O)N6CCOCC6)cc5)c4c3c2)cc1 [Compound 118]
EC50 [1]: 29.6 nM
EC50 [2]: 6.6 nM
mTOR [3]: 0.2691 µM
Microsomal Stability (rat) T1/2 [4]: >30.0 min
Sol @ pH 7.4 [5]: <1.0 ug/mL

O=C(c1ccc(-n2c(=O)ccc3cnc4ccc(-c5ccc(O)cc5)cc4c32)cc1)N1CCOCC1 [Compound 119]
EC50 [1]: 32.4 nM
EC50 [2]: 7.55 nM
mTOR [3]: 0.07539 µM
Microsomal Stability (rat) T1/2 [4]: 18.4 min
Sol @ pH 7.4 [5]: <1.0 ug/mL

O=C(c1ccc(-n2c(=O)ccc3cnc4ccc(-c5ccc(CO)cc5)cc4c32)cc1)N1CCOCC1 [Compound 120]
EC50 [1]: 35.9 nM
EC50 [2]: 7.5 nM
mTOR [3]: 0.2246 µM
Microsomal Stability (rat) T1/2 [4]: >30.0 min
Sol @ pH 7.4 [5]: <1.0 ug/mL

COc1cccc(-c2ccc3ncc4ccc(=O)n(-c5ccc(C(=O)N6CCOCC6)cc5)c4c3c2)c1 [Compound 123]
EC50 [1]: 442 nM
EC50 [2]: 145 nM
mTOR [3]: 0.857 µM
Microsomal Stability (rat) T1/2 [4]: 7.3 min

O=C(c1ccc(-n2c(=O)ccc3cnc4ccc(-c5ccc(Cl)cc5)cc4c32)cc1)N1C2CCCC1CC2 [Compound 137]
EC50 [1]: 1000 nM
EC50 [2]: 188 nM
mTOR [3]: 1.518 µM
Microsomal Stability (rat) T1/2 [4]: 1.6 min
Sol @ pH 7.4 [5]: <1.0 ug/mL

O=C(c1ccc(-n2c(=O)ccc3cnc4ccc(-c5ccc(Cl)cc5)cc4c32)cc1)N(C1CCCCC1)C1CC1 [Compound 142]
EC50 [1]: 50000 nM
EC50 [2]: 13800 nM
mTOR [3]: 46.17 µM
Microsomal Stability (rat) T1/2 [4]: 1.4 min
Sol @ pH 7.4 [5]: <1.0 ug/mL

O=C(c1ccc(-n2c(=O)ccc3c[n+]([O-])c4ccc(-c5ccc(Cl)cc5)cc4c32)cc1)N1CCOCC1 [Compound 148]
EC50 [1]: 4580 nM
EC50 [2]: 601 nM
mTOR [3]: 18.17 µM
Microsomal Stability (rat) T1/2 [4]: >30.0 min
Sol @ pH 7.4 [5]: 21.8 ug/mL

NC(=O)c1cc(-c2ccc3ncc4ccc(=O)n(-c5ccc(C(=O)N6CCOCC6)cc5)c4c3c2)ccc1Cl [Compound 149]
EC50 [1]: 840 nM
EC50 [2]: 409 nM
mTOR [3]: 6.235 µM
Microsomal Stability (rat) T1/2 [4]: >30.0 min
Sol @ pH 7.4 [5]: 8.8 ug/mL

CC1CC1NC(=O)c1ccc(-n2c(=O)ccc3cnc4ccc(-c5ccc(Cl)cc5)cc4c32)cc1 (centres unmarked) [Compound 176]
EC50 [1]: 283 nM
EC50 [2]: 90.2 nM
mTOR [3]: 0.5562 µM
Sol @ pH 7.4 [5]: <0.10 ug/mL

CC1CC1NC(=O)c1ccc(-n2c(=O)ccc3cnc4ccc(-c5ccc(CN(C)C)cc5)cc4c32)cc1 (centres unmarked) [Compound 177]
EC50 [1]: 902 nM
mTOR [3]: 9.038 µM
Sol @ pH 7.4 [5]: >74.00 ug/mL

CN(C)CCc1ccc(-c2ccc3ncc4ccc(=O)n(-c5ccc(C(=O)N6CCOCC6)cc5)c4c3c2)cc1 [Compound 186]
EC50 [1]: 573 nM
EC50 [2]: 207 nM
mTOR [3]: 12.44 µM

CC(C)(N)c1ccc(-c2ccc3ncc4ccc(=O)n(-c5ccc(C(=O)N6CCOCC6)cc5)c4c3c2)cc1 [Compound 187]
EC50 [1]: 4590 nM
EC50 [2]: 1600 nM
mTOR [3]: 0.7246 µM
Sol @ pH 7.4 [5]: 0 ug/mL

COc1cc(C(=O)NC2CC2)ccc1-n1c(=O)ccc2cnc3ccc(-c4ccc(CN(C)C)cc4)cc3c21 [Compound 190]
EC50 [1]: 248 nM
mTOR [3]: 10.68 µM
Microsomal Stability (rat) T1/2 [4]: >30 min
Sol @ pH 7.4 [5]: >77 ug/mL

NC(=O)c1cccc(-n2c(=O)ccc3cnc4ccc(-c5ccc(N)nc5)cc4c32)c1 [Compound 333]
EC50 [1]: 411 nM
EC50 [2]: 239 nM
mTOR [3]: 0.2135 µM

Cc1ccc(C#N)cc1-n1c(=O)n(C)c2cnc3ccc(-c4ccc(F)c(C#N)c4)cc3c21 [Compound 408]
EC50 [1]: 305 nM
EC50 [2]: 10 nM
mTOR [3]: 100 µM
Sol @ pH 7.4 [5]: 0 ug/mL

COc1cc(-c2ccc3ncc4c(c3c2)n(-c2cc(C#N)ccc2C)c(=O)n4C)ccc1F [Compound 409]
EC50 [1]: 106 nM
EC50 [2]: 52.9 nM
mTOR [3]: 50 µM
Sol @ pH 7.4 [5]: 0 ug/mL

Cc1ccc(C#N)cc1-n1c(=O)n(C)c2cnc3ccc(-c4ccc(Cl)c(C#N)c4)cc3c21 [Compound 410]
EC50 [1]: 36.3 nM
EC50 [2]: 2.49 nM
mTOR [3]: 100 µM
Sol @ pH 7.4 [5]: 0 ug/mL

Cc1ccc(C#N)cc1-n1c(=O)n(C)c2cnc3ccc(-c4ccc(F)cc4)cc3c21 [Compound 411]
EC50 [1]: 109 nM
EC50 [2]: 61.4 nM
mTOR [3]: 100 µM
Sol @ pH 7.4 [5]: 0 ug/mL

Cc1ccc(C#N)cc1-n1c(=O)n(C)c2cnc3ccc(-c4cccc(C#N)c4)cc3c21 [Compound 412]
EC50 [1]: 39.9 nM
EC50 [2]: 6.57 nM
mTOR [3]: 100 µM
Sol @ pH 7.4 [5]: 0 ug/mL

Cn1c(=O)n(-c2cccc(C#N)c2)c2c3cc(-c4ccc(CCN)cc4)ccc3ncc21 [Compound 413]
EC50 [1]: 54 nM
EC50 [2]: 29.4 nM
mTOR [3]: 2.73 µM
Sol @ pH 7.4 [5]: 0 ug/mL

Cn1c(=O)n(-c2ccc(N3CCNCC3)c(C#N)c2)c2c3cc(-c4ccc(F)cc4)ccc3ncc21 [Compound 414]
EC50 [1]: 38.7 nM
EC50 [2]: 14.2 nM
mTOR [3]: 0.5842 µM

Cc1cc(N2CCNCC2)c(C#N)cc1-n1c(=O)n(C)c2cnc3ccc(-c4ccc(Cl)cc4)cc3c21 [Compound 415]
EC50 [1]: 18.6 nM
EC50 [2]: 21.4 nM
mTOR [3]: 15.87 µM

Cc1cc(N2CCNCC2)c(C#N)cc1-n1c(=O)n(C)c2cnc3ccc(-c4ccc(F)cc4)cc3c21 [Compound 416]
EC50 [1]: 21.6 nM
EC50 [2]: 39.6 nM
mTOR [3]: 0.9306 µM

Cn1c(=O)n(-c2cccc(C#N)c2)c2c3cc(-c4ccc(C#N)cc4)ccc3ncc21 [Compound 442]
EC50 [1]: 1990 nM
EC50 [2]: 449 nM
mTOR [3]: 100 µM

Cn1c(=O)n(-c2cccc(C#N)c2)c2c3cc(-c4ccc5[nH]cnc5c4)ccc3ncc21 [Compound 445]
EC50 [1]: 735 nM
EC50 [2]: 269 nM
mTOR [3]: 0.6303 µM

Reference: patent US11753408B2, “Compounds and method for blocking transmission of malarial parasite” (The United States of America, as represented by the …, priority 2016, dated 2023)
